Measured values as given in patent US9273057B2 (Bristol-Myers Squibb Company, priority 2012, dated 2016).

Biological target: CK2A1 (CK2α/β) (Homo sapiens, UniProt P68400)
Test: CK2 kinase assay, CK2A1 (CK2α/β)
Type: biochemical
Conditions: Table A; read-out: CK2A1 (CK2α/β) (IC50)

Chain of CK2A1 (CK2α/β) (P68400 whole entry, species assumed): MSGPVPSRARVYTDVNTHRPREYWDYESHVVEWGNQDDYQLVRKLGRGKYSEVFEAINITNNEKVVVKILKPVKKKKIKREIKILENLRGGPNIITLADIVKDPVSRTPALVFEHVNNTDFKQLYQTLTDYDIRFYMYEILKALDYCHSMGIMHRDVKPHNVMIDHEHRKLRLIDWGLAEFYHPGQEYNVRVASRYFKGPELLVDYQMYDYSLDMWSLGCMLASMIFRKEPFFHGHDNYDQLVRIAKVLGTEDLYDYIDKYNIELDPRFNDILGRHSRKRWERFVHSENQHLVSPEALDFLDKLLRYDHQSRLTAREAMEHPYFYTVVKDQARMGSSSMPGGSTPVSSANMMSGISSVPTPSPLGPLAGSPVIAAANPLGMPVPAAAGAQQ
Chain of CK2A1 (CK2α/β) (P67870 whole entry partner, species assumed): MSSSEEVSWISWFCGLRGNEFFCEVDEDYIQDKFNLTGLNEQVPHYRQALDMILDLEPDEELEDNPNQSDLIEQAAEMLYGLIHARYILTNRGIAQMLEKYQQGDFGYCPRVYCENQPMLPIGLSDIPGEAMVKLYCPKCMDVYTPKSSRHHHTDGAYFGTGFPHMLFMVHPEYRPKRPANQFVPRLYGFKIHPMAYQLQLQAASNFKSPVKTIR

| Structure (SMILES) | IC50 |
| --- | --- |
| N#Cc1cc(Nc2nc(NC3CC3)c3ncc(C#N)n3n2)c(Cl)c(N2CCN(C(=O)CC3CC3)CC2)c1 [Example 86] | 0.72 nM |
| COCCC(=O)N1CCN(c2cc(C#N)cc(Nc3nc(NC4CC4)c4ncc(C#N)n4n3)c2Cl)CC1 [Example 87, 2-((2-chloro-5-cyano-3-(4-(3-methoxypropanoyl)-1-piperazinyl)phenyl)amino)-4-(cyclopropylamino) imidazo[2,1-f][1,2,4] triazine-7-carbonitrile] | 0.76 nM |
| COCCOCC(=O)N1CCN(c2cc(C#N)cc(Nc3nc(NC4CC4)c4ncc(C#N)n4n3)c2Cl)CC1 [Example 88, 2-((2-chloro-5-cyano-3-(4-((2-methoxyethoxy)acetyl)-1-piperazinyl)phenyl)amino)-4-(cyclopropylamino) imidazo[2,1-f][1,2,4] triazine-7-carbonitrile] | 0.6 nM |
| CS(=O)(=O)CC(=O)N1CCN(c2cc(C#N)cc(Nc3nc(NC4CC4)c4ncc(C#N)n4n3)c2Cl)CC1 [Example 89, 2-((2-chloro-5-cyano-3-(4-((methylsulfonyl)acetyl)-1-piperazinyl)phenyl)amino)-4-(cyclopropylamino) imidazo[2,1-f][1,2,4] triazine-7-carbonitrile] | 2.9 nM |
| N#Cc1cc(Nc2nc(NC3CC3)c3ncc(C#N)n3n2)c(Cl)c(N2CCN(C(=O)CCO)CC2)c1 [Example 90, 2-(2-chloro-5-cyano-3-(4-(3-hydroxypropanoyl)piperazin-1-yl)phenylamino)-4-(cyclopropylamino) imidazo[1,2-f][1,2,4] triazine-7-carbonitrile] | 0.53 nM |
| CC(C)(O)CC(=O)N1CCN(c2cc(C#N)cc(Nc3nc(NC4CC4)c4ncc(C#N)n4n3)c2Cl)CC1 [Example 91] | 0.49 nM |
| N#Cc1cc(Nc2nc(NC3CC3)c3ncc(C#N)n3n2)c(Cl)c(N2CCN(C(=O)CCCS(N)(=O)=O)CC2)c1 [Example 93, 4-(4-(2-chloro-5-cyano-3-((7-cyano-4-(cyclopropylamino)imidazo[2,1-f][1,2,4]triazin-2-yl)amino)phenyl)-1-piperazinyl)-4-oxo-1-butanesulfonamide] | 0.46 nM |
| N#Cc1cc(Nc2nc(NC3CC3)c3ncc(C#N)n3n2)c(Cl)c(N2CCN(C(=O)CC3CCOCC3)CC2)c1 [Example 95, 2-((2-chloro-5-cyano-3-(4-(tetrahydro-2H-pyran-4-ylacetyl)-1-piperazinyl)phenyl)amino)-4-(cyclopropylamino) imidazo[2,1-f][1,2,4] triazine-7-carbonitrile] | 0.92 nM |
| N#Cc1cc(Nc2nc(NC3CC3)c3ncc(C#N)n3n2)c(Cl)c(N2CCN(C(=O)CCCn3ccnc3)CC2)c1 [Example 96, 2-((2-chloro-5-cyano-3-(4-(4-(1H-imidazol-1-yl)butanoyl)-1-piperazinyl)phenyl)amino)-4-(cyclopropylamino) imidazo[2,1-f][1,2,4] triazine-7-carbonilrile] | 0.63 nM |
| N#Cc1cc(Nc2nc(NC3CC3)c3ncc(C#N)n3n2)c(Cl)c(N2CCN(C(=O)Cn3ccnc3)CC2)c1 [Example 97, 2-((2-chloro-5-cyano-3-(4-(1H-imidazol-1-ylacetyl)-1-piperazinyl)phenyl)amino)-4-(cyclopropylamino) imidazo[2,1-f][1,2,4] triazine-7-carbonitrile] | 0.53 nM |
| N#Cc1cc(Nc2nc(NC3CC3)c3ncc(C#N)n3n2)c(Cl)c(N2CCN(C(=O)CCn3ccnc3)CC2)c1 [Example 98] | 0.36 nM |
| N#Cc1cc(Nc2nc(NC3CC3)c3ncc(C#N)n3n2)c(Cl)c(N2CCN(C(=O)Cc3nnn[nH]3)CC2)c1 [Example 99, 2-((2-chloro-5-cyano-3-(4-(1H-tetrazol-5-ylacetyl)-1-piperazinyl)phenyl)amino)-4-(cyclopropylamino) imidazo[2,1-f][1,2,4] triazine-7-carbonitrile] | 0.32 nM |
| N#Cc1cc(Nc2nc(NC3CC3)c3ncc(C#N)n3n2)c(Cl)c(N2CCN(C(=O)CN3CCOCC3)CC2)c1 [Example 100, 2-((2-chloro-5-cyano-3-(4-(4-morpholinylacetyl)-1-piperazinyl)phenyl)amino)-4-(cyclopropylamino) imidazo[2,1-f][1,2,4] triazine-7-carbonitrile] | 0.55 nM |
| CCNc1nc(Nc2cc(C#N)cc(N3CCN(C4CN(C(=O)OC)C4)CC3)c2Cl)nn2c(C#N)cnc12 [Example 101, methyl 3-(4-(2-chloro-5-cyano-3-((7-cyano-4-(ethylamino)imidazo [2,1-f][1,2,4]triazin-2-yl)amino)phenyl)-1-piperazinyl)-1-azetidinecarboxylate] | 1.27 nM |
| N#Cc1cc(Nc2nc(NC3CC3)c3ncc(C#N)n3n2)c(Cl)c(N2CCN([C@H]3C[C@H](O)C3)CC2)c1 [Example 102, (+/−) 2-((2-chloro-5-cyano-3-(4-(trans-3-hydroxycyclobutyl)-1-piperazinyl)phenyl)amino)-4-(cyclopropylamino) imidazo[2,1-f][1,2,4] triazine-7-carbonitrile] | 1.1 nM |
| N#Cc1cc(Nc2nc(NC3CC3)c3ncc(C#N)n3n2)c(Cl)c(N2CCN(C3(C#N)COC3)CC2)c1 [Example 104, 2-((2-chloro-5-cyano-3-(4-(3-cyano-3-oxetanyl)-1-piperazinyl)phenyl)amino)-4-(cyclopropylamino) imidazo[2,1-f][1,2,4] triazine-7-carbonitrile] | 0.7 nM |
| N#Cc1cc(Nc2nc(NC3CC3)c3ncc(C#N)n3n2)c(Cl)c(N2CCN(C3COC3)CC2)c1 [Example 105, 2-(2-chloro-5-cyano-3-(4-(oxetan-3-yl)piperazin-1-yl)phenylamino)-4-(cyclopropylamino) imidazo[1,2-f][1,2,4] triazine-7-carbonitrile] | 0.42 nM |
| N#Cc1cc(Nc2nc(NC3CC3)c3ncc(C#N)n3n2)c(Cl)c(N2CCN([C@H]3C[C@@H](C#N)C3)CC2)c1 [Example 106] | 1.23 nM |
| N#Cc1cc(Nc2nc(NC3CC3)c3ncc(C#N)n3n2)c(Cl)c(N2CCN([C@H]3C[C@H](C#N)C3)CC2)c1 [Example 107, 2-((2-chloro-5-cyano-3-(4-(trans-3-cyanocyclobutyl)-1-piperazinyl)phenyl)amino)-4-(cyclopropylamino) imidazo[2,1-f][1,2,4] triazine-7-carbonitrite] | 0.59 nM |
| N#Cc1cc(Nc2nc(NC3CC3)c3ncc(C#N)n3n2)c(Cl)c(N2CCC(NC3COC3)CC2)c1 [Example 110, 2-((2-chloro-5-cyano-3-(4-(3-oxetanylamino)-1-piperidinyl)phenyl)amino)-4-(cyclopropylamino)imidazo [2,1-f][1,2,4]triazine-7-carbonitrile] | 0.58 nM |
| CC1(O)CN(C2CCN(c3cc(C#N)cc(Nc4nc(NC5CC5)c5ncc(C#N)n5n4)c3Cl)CC2)C1 [Example 111, 2-(2-chloro-5-cyano-3-(4-(3-hydroxy-3-methylazetidin-1-yl)piperidin-1-yl)phenylamino)-4-(cyclopropylamino)imidazo [1,2-f][1,2,4]triazine-7-carbonitrile] | 0.68 nM |
| CCOC(=O)N1CCC(NC2CCN(c3cc(C#N)cc(Nc4nc(NC5CC5)c5ncc(C#N)n5n4)c3Cl)CC2)CC1 [Example 118, ethyl 4-((1-(2-chloro-5-cyano-3-((7-cyano-4-(cyclopropylamino)imidazo [2,1-f][1,2,4]triazin-2-yl)amino)phenyl)-4-piperidinyl)amino)-1-piperidinecarboxylate] | 0.84 nM |
| CN1C(C)(C)CC(NC2CCN(c3cc(C#N)cc(Nc4nc(NC5CC5)c5ncc(C#N)n5n4)c3Cl)CC2)CC1(C)C [Example 124, 2-((2-chloro-5-cyano-3-(4-((1,2,2,6,6-pentamethyl-4-piperidinyl)amino)-1-piperidinyl)phenyl)amino)-4-(cyclopropylamino)imidazo [2,1-f][1,2,4]triazine-7-carbonitrile] | 1.01 nM |
| N#Cc1cc(Nc2nc(NC3CC3)c3ncc(C#N)n3n2)c(Cl)c(N2CCC(NC3CCOCC3)CC2)c1 [Example 125, 2-((2-chloro-5-cyano-3-(4-(tetrahydro-2H-pyran-4-ylamino)-1-piperidinyl)phenyl)amino)-4-(cyclopropylamino)imidazo [2,1-f][1,2,4]triazine-7-carbonitrile] | 0.75 nM |
| N#Cc1cc(Nc2nc(NC3CC3)c3ncc(C#N)n3n2)c(Cl)c(N2CCC(NC3CS(=O)(=O)C3)CC2)c1 [Example 129, 2-((2-chloro-5-cyano-3-(4-((1,1-dioxido-3-thietanyl)amino)-1-piperidinyl)phenyl)amino)-4-(cyclopropylamino)imidazo [2,1-f][1,2,4]triazine-7-carbonitrile] | 5.13 nM |
| N#Cc1cc(Nc2nc(NC3CC3)c3ncc(C#N)n3n2)c(Cl)c(N2CCC(NCC3CC3)CC2)c1 [Example 136, 2-((2-chloro-5-cyano-3-(4-((cyclopropylmethyl)amino)-1-piperidinyl)phenyl)amino)-4-(cyclopropylamino)imidazo [2,1-f][1,2,4]triazine-7-carbonitrile] | 22 nM |
| CC(C)(O)[C@H](F)CNC1CCN(c2cc(C#N)cc(Nc3nc(NC4CC4)c4ncc(C#N)n4n3)c2Cl)CC1 [Example 137, 2-((2-chloro-5-cyano-3-(4-(((2R)-2-fluoro-3-hydroxy-3-methylbutyl)amino)-1-piperidinyI)phenyl)amino)-4-(cyclopropylamino)imidazo [2,1-f][1,2,4]triazine-7-carbonitrile] | 3.06 nM |
| Cc1cc(CNC2CCN(c3cc(C#N)cc(Nc4nc(NC5CC5)c5ncc(C#N)n5n4)c3Cl)CC2)on1 [Example 140, 2-(2-chloro-5-cyano-3-(4-((3-methylisoxazol-5-yl)methylamino)piperidin-1-yl)phenylamino)-4-(cyclopropylamino)imidazo [1,2-f][1,2,4]triazine-7-carbonitrile] | 2.68 nM |
| N#CCNC1CCN(c2cc(C#N)cc(Nc3nc(NC4CC4)c4ncc(C#N)n4n3)c2Cl)CC1 [Example 141, 2-((2-chloro-5-cyano-3-(4-((cyanomethyl)amino)-1-piperidinyl)phenyl)amino)-4-(cyclopropylamino)imidazo [2,1-f][1,2,4]triazine-7-carbonitrile] | 0.67 nM |
